Assays:
[1] = system: RS4;11 cells; assay: RS4;11 Cell Viability Assay (CellTiter Glo); type: cell-based; settings: Homo sapiens, RS4-11, 48 h, 50,000 cells per well, 10% human serum;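 note: RS4,11 acute lymphoblastic leukemia cells, viability as percent of untreated control cells, EC50 for loss of viable cells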
Experimental: The acute lymphoblastic leukemia (ALL) cell line RS4;11 was used as the primary human cell line to assess the cellular activity of Bcl-2 selective agents in vitro and their efficacy in vivo.
Cell cytotoxicity EC50 values were assessed using CellTiter Glo (Promega) according to the manufacturer's recommendations. The EC50 values were determined as a percentage of viable cells following treatment compared to the untreated control cells.

[2] = target: GST-Bc1-2 (Homo sapiens, UniProt P10415); assay: Time Resolved-Fluorescence Resonance Energy Transfer (TR-FRET) Bcl-2 binding assay with F-Bak peptide probe; settings: GST-Bcl-2 1 nM, F-Bak probe 100 nM, Tb-anti-GST 1 nM; '<' = below limit of detection; read-out: TR-FRET Bcl-2 Binding Ki
Chain of GST-Bc1-2 (P10415 whole entry): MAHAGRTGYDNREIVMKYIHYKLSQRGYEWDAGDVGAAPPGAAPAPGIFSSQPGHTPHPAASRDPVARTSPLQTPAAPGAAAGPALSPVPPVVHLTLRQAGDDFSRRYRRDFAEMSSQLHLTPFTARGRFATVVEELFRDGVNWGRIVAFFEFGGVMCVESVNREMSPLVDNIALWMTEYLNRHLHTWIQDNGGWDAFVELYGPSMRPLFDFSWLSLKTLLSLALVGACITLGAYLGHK
Experimental: The samples are then mixed on a shaker for 1 minute and incubated for an additional 3 hours at room temperature. For each assay, the probe/antibody and protein/probe/antibody were included on each assay plate as negative and positive controls, respectively.
The samples were then mixed on a shaker for 1 minute and incubated for an additional 3 hours at room temperature. For each assay, the probe/antibody and protein/probe/antibody were included on each assay plate as negative and positive controls, respectively.

Row | Compound | EC50 [1] [nM] | Ki [2] [nM]
1 | CC1(C)CCC(CN2CCN(c3ccc(C(=O)NS(=O)(=O)c4cnc5c(ccn5CC5CCOCC5)c4)c(Oc4cnc5[nH]ccc5c4)c3)CC2)=C(c2ccc(Cl)cc2)C1 [Example 388, 4-(4-{[2-(4-chlorophenyl)-4,4-dimethylcyclohex-1-en-1-yl]methyl}piperazin-1-yl)-2-(1H-pyrrolo[2,3-b]pyridin-5-yloxy)-N-{[1-(tetrahydro-2H-pyran-4-ylmethyl)-1H-pyrrolo[2,3-b]pyridin-5-yl]sulfonyl}benzamide] | > 1000 | 0.812
2 | CC1(C)CCC(CN2CCN(c3ccc(C(=O)NS(=O)(=O)c4cnc5c(c4)c(Cl)cn5CC4CCOCC4)c(Oc4cnc5[nH]ccc5c4)c3)CC2)=C(c2ccc(Cl)cc2)C1 [Example 389, 4-(4-{[2-(4-chlorophenyl)-4,4-dimethylcyclohex-1-en-1-yl]methyl}piperazin-1-yl)-N-{[3-chloro-1-(tetrahydro-2H-pyran-4-ylmethyl)-1H-pyrrolo[2,3-b]pyridin-5-yl]sulfonyl}-2-(1H-pyrrolo[2,3-b]pyridin-5-yloxy)benzamide] | 733 | 0.774
3 | COCC1(C)CCC(CN2CCN(c3ccc(C(=O)NS(=O)(=O)c4ccc(NCC5CCOCC5)c([N+](=O)[O-])c4)c(Oc4cnc5[nH]ccc5c4)c3)CC2)=C(c2ccc(Cl)cc2)C1 (centres unmarked) [Example 390, 4-(4-{[2-(4-chlorophenyl)-4-(methoxymethyl)-4-methylcyclohex-1-en-1-yl]methyl}piperazin-1-yl)-N-({3-nitro-4-[(tetrahydro-2H-pyran-4-ylmethyl)amino]phenyl}sulfonyl)-2-(1H-pyrrolo[2,3-b]pyridin-5-yloxy)benzamide] | 5.06 | < 0.01
4 | CC1(C)CCC(CN2CCN(c3ccc(C(=O)NS(=O)(=O)c4ccc(OCC5CCC(CO)(CO)CC5)c([N+](=O)[O-])c4)c(Oc4cnc5[nH]ccc5c4)c3)CC2)=C(c2ccc(Cl)cc2)C1 [Example 391, N-[(4-{[4,4-bis(hydroxymethyl)cyclohexyl]methoxy}-3-nitrophenyl)sulfonyl]-4-(4-{[2-(4-chlorophenyl)-4,4-dimethylcyclohex-1-en-1-yl]methyl}piperazin-1-yl)-2-(1H-pyrrolo[2,3-b]pyridin-5-yloxy)benzamide] | 8.41 | < 0.01
5 | COC1CCN(C(=O)Nc2ccc(S(=O)(=O)NC(=O)c3ccc(N4CCN(CC5=C(c6ccc(Cl)cc6)CC(C)(C)CC5)CC4)cc3Oc3cnc4[nH]ccc4c3)cc2Cl)CC1 [Example 392, N-(2-chloro-4-{[4-(4-{[2-(4-chlorophenyl)-4,4-dimethylcyclohex-1-en-1-yl]methyl}piperazin-1-yl)-2-(1H-pyrrolo[2,3-b]pyridin-5-yloxy)benzoyl]sulfamoyl}phenyl)-4-methoxypiperidine-1-carboxamide] | > 1000 | 0.171
6 | CC1(C)CCC(CN2CCN(c3ccc(C(=O)NS(=O)(=O)c4ccc(NC(=O)N5CCC(C#N)CC5)c(Cl)c4)c(Oc4cnc5[nH]ccc5c4)c3)CC2)=C(c2ccc(Cl)cc2)C1 [Example 393, N-(2-chloro-4-{[4-(4-{[2-(4-chlorophenyl)-4,4-dimethylcyclohex-1-en-1-yl]methyl}piperazin-1-yl)-2-(1H-pyrrolo[2,3-b]pyridin-5-yloxy)benzoyl]sulfamoyl}phenyl)-4-cyanopiperidine-1-carboxamide] | > 1000 | 0.263
7 | CC1(C)CCC(CN2CCN(c3ccc(C(=O)NS(=O)(=O)c4ccc(NC(=O)N5CCC(C)(O)CC5)c(Cl)c4)c(Oc4cnc5[nH]ccc5c4)c3)CC2)=C(c2ccc(Cl)cc2)C1 [Example 394, N-(2-chloro-4-{[4-(4-{[2-(4-chlorophenyl)-4,4-dimethylcyclohex-1-en-1-yl]methyl}piperazin-1-yl)-2-(1H-pyrrolo[2,3-b]pyridin-5-yloxy)benzoyl]sulfamoyl}phenyl)-4-hydroxy-4-methylpiperidine-1-carboxamide] | 461 | 0.132

From patent US8580794B2 (AbbVie Inc., priority 2009, dated 2013)
